Results on 1 molecule are retold here after US20240050491A1 (priority 2021, published 2024).

Test [1] deals with Salmonella. In words: Decontamination of Salmonella contaminated alfalfa seeds by Ca-hypochlorite. In kind it is in vivo, Salmonella enterica serovar Typhimurium. Particulars: 20,000 ppm. As for the experimental part: FIGS. 18A-B are graphs illustrating the influence of decontamination by Ca-hypochlorite, of Salmonella contaminated alfalfa seeds, on the concentration of Salmonella. The seeds were contaminated with Salmonella by dipping in 10^2-[…] CFU/ml. Decontamination was performed with 20,000 ppm Ca-hypochlorite. The number of Salmonella on the seeds (CFU/g seeds) was detected immediately after the contamination (A), and in the sprouts (B) after 3 days of sprouting (CFU/g sprouts). The results are representing the average and standard error of 3 independent experiments in duplicates. When bacteria were not detected, enrichment of the samples was performed in BPW. (*) Growth after enrichment. (−) No growth.
(§1) Seed sterilization by Ca-hypochlorite: To assess the ability of Ca-hypochlorite to inactivate the Salmonella enterica serovar Typhimurium (STm) strain SL1344 on the seeds, alfalfa seeds were pre-contaminated with increasing concentrations of STm cells. […] After 4 days the alfalfa sprouts were extracted and the STm concentration in the extract was analyzed. Salmonella Typhimurium SL1344 survival in sprouts in the presence or absence of Bacillus BX-77 was analyzed after disinfection by Ca-hypochlorite of alfalfa seeds contaminated by 10^2 or 10^5 CFU of STm. […]

Test [2] deals with Salmonella Typhimurium SL1344. Kind of test: Salmonella survival in alfalfa sprouts with BX-77 and/or Ca-hypochlorite disinfection. In kind it is in vivo.
Text: FIG. 19 is a graph illustrating Salmonella Typhimurium SL1344 survival in sprouts in the presence of BX-77 or absence of BX-77 after disinfection by Ca-hypochlorite of Salmonella contaminated seeds. Alfalfa seeds were contaminated by 10^2 or 10^5 CFU of Salmonella, dried, decontaminated by Ca-hypochlorite and seeded in the presence or absence of BX-77. Salmonella infected seeds were used as controls in the absence or the presence of BX-77. The experiment was repeated twice and each set included 5 cups.
as §1, with “cells. Breifly, seeds (1 g) 15 were contaminated with the desired number of bacteria by adding 20 μL of STm suspended in SDDW and mixing by a sterile plastic spreader and then the seeds were dried at room-temp for 30 minutes.” for “cells.”

For `[Ca+2].[O-]Cl.[O-]Cl` [Ca-hypochlorite, calcium hypochlorite], the efficiency of decontamination entry is “not efficient” in test [1] (higher Salmonella concentrations, 3 day sprouts); “Salmonella was not detected even after sprouting” in test [1] (low Salmonella concentrations up to 10^3/ml, seeds and 3 day sprouts). Moreover, the “killing of Salmonella cells” value in test [2] (seeds infected by 10^2 CFU of Salmonella) is recorded as “killed all the Salmonella cells”. Also, the “reduction of Salmonella growth” value in test [2] (seeds infected by 10^5 CFU of Salmonella) was 2 log CFU/g.
